According to US20250059231A1, “Protease inhibitors” (priority 2021, published 2025):
Where a SMILES comes first, the peptide text is derived from it. [ ]: non-standard residue; d: D form. The star is where a group is joined. Palmitoyl = CCCCCCCCCCCCCCCC(=O)*

What was measured:
[1] = tested on: Dengue virus 2 (DENV2, ATCC VR-1584); assay: DENV2 infection in AG129 mice: clinical signs, body and spleen weights; assay type: in vivo; details: 100 mg/kg, SC; n = 9
Experimental: (§1) The purpose of this study was to determine the efficacy of the compounds on Dengue virus 2 (DENV2, ATCC® VR-1584™) infection in AG129 mice.
(§2) Six groups of AG129 mice, 6-8 weeks old, with 9 mice per group were used to test compounds according to table 3.1.1. Animal room environment was monitored for temperature and relative humidity twice per day. The temperature range was 22° C.±3° C. and humidity range was 30-70%. The animals were provided with 12 hours light and 12 hours darkness. Feed and drinking water was provided ad libitum. Compounds 43 and 113 were tested.
C6/36 (ATCC(CRL-1660) cell lines were grown in RPMI 1640 medium (Gibco/HiMedia) plus 5% fetal bovine serum at 28° C. Dengue virus type 2 (ATCC®VR-1584™) New Guinea C(NGC, DENV2) was passaged in BHK-21 cell cultures to make sufficient stocks for assay. Virus titer was determined by TCID50 method using BHK-21 cells.
(§3) Twenty-four hours post treatment (Day 0), animals were injected intraperitoneally (IP) with 0.2 ml of virus suspension (˜5×10^7/animal).
The vehicle for tested compounds was 5% DMSO+95% (20%) hydroxypropylcyclodextrin. […] Formulations were prepared daily immediately before dosing.
(§4) Administration of compounds and vehicle to animals started twenty four hours before infection (Day −1). Animals were treated daily (From Day-1 to day 4) as per the experimental design shown below in table 3.1.5. Animals were monitored for general clinical signs, morbidity and mortality. Body weights were measured daily.
Animals were sacrificed on day 5 post infection with Isoflurane followed by an overdose of CO2. Spleens were excised, measured and weighed.
(§5) The Mean±SD Log10PFU/ml, relative Mean±SD spleen weight, Mean±SD biomarker concentrations were estimated in each group. Significant differences between group means and control were analyzed by one-way ANOVA, followed by a Dunnett's multiple comparison test, using GraphPad Prism 5 at 95% confidence levels. A p value of <0.05 was considered as significant.

[2] = tested on: Dengue virus 2 (DENV2, ATCC VR-1584); assay: DENV2 infection in AG129 mice: viral load in plasma (plaque assay); assay type: in vivo; details: 100 mg/kg, SC
Experimental: as §1, §2, §3, §4
Blood was collected on days-1, 0, 1, 2, 3, 4 to 5.
BHK-21 cells were cultured to approximately 80% confluency in 24-well plates (NUNC, NY, USA). Plasma samples were 10-fold serially diluted in RPMI 1640 (GIBCO). BHK-21 monolayers were infected with 100 μl of each virus dilution. After incubation at 37° C. and 5% CO2 atmosphere for one hour with rocking at 15 min intervals, the medium was decanted and 1 ml of 1% (w/v)carboxymethyl cellulose in RPMI supplemented with 2% FCS was added to each well. After four days incubation at 37° C. in 5% CO2, the cells were fixed with 4% paraformaldehyde and stained for 30 min with […] of 1% crystal violet dissolved in 37% formaldehyde. After thorough rinsing with water, plates were dried and the plaques were scored visually.
as §5

[3] = target: T1, DENV protease (Dengue virus type 2, UniProt P29990); assay: biochemical; details: at 50 μM; read-out: inhibition of DENV
T1 construct: The virus-encoded dengue protease comprises the amino-terminal 180 amino acids of NS3 (NS3pro) of the polyprotein
T1 sequence (P29990 1398-1437): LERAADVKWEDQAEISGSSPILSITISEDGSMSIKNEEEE
T1 sequence (P29990 1476-1653): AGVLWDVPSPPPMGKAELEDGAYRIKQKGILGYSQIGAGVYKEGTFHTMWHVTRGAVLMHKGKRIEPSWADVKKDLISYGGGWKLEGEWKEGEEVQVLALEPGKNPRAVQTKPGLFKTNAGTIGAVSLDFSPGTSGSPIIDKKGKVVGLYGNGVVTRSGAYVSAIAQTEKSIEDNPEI
Outline: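 DENV protease (100 nM) was pre-incubated 15 min with inhibitors in 50 mM Tris-HCl pH 9.0, 10% ethylene glycol, 0.0016% Brij 58. FRET substrate (50 μM final) started the reaction, monitored 15 min as RFU/s slope. IC50 came from triplicate means versus concentration.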

[4] = target: T2, WNV protease (West Nile virus, UniProt P06935); assay: WNV protease assay (analogous procedure); assay type: biochemical; details: at 50 μM
T2 construct: a trypsin-like serine protease domain in the N-terminal region of the flaviviral NS3 proteins
T2 sequence (P06935 1424-1463): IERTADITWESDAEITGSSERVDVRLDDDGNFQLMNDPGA
T2 sequence (P06935 1502-1679): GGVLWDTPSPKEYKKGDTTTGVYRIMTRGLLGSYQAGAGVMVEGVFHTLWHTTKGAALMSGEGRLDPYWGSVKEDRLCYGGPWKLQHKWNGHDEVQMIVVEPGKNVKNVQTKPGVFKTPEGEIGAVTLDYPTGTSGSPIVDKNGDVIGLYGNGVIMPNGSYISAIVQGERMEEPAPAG
Outline: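 Adapted from the DENV protease assay: inhibitors preincubated 15 min with protease (DENV at 100 nM) in 50 mM Tris-HCl pH 9.0, 10% ethylene glycol, 0.0016% Brij 58, then FRET substrate (50 μM final) added.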

[5] = target: T3, ZIKA protease (Zika virus, UniProt Q32ZE1); assay: biochemical
T3 construct: a trypsin-like serine protease domain in the N-terminal region of the flaviviral NS3 proteins
T3 sequence (Q32ZE1 1499-1676): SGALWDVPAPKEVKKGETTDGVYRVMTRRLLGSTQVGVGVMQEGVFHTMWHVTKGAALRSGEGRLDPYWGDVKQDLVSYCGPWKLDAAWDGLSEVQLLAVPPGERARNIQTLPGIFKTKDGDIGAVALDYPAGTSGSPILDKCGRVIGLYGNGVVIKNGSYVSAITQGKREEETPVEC
T3 sequence (Q32ZE1 1421-1460): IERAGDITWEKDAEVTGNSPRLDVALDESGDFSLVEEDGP

[6] = target: human Thrombin (Homo sapiens, UniProt P00734); assay: Selectivity screening, human serine protease thrombin; assay type: biochemical; details: at 5 μM; read-out: inhibition of human Thrombin
[7] = target: human Trypsin (Homo sapiens, UniProt P07477); assay: Selectivity screening, human serine protease trypsin; assay type: biochemical; details: read-out: inhibition of human Trypsin
Outline: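 Active candidates were counter-screened for selectivity against the human serine protease trypsin in a biochemical assay similar to the flavivirus protease assay. Cleavage of a substrate by protease activity raises fluorescence, which is read on a microtiter fluorescence plate reader. Compounds are diluted from 10 mM DMSO stocks and tested in triplicate, and inhibition of trypsin is reported.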

[8] = tested on: West Nile virus
[9] = tested on: ZIKV
[10] = target: T2, WNV protease; assay: WNV protease assay (analogous procedure); assay type: biochemical; details: read-out: IC50 for WNNV

SMILES: NC(=O)c1ncn([C@@H]2O[C@H](CO)[C@@H](O)[C@H]2O)n1 [Ribavirin, ribavirin, reference compound]
- Body weights of mice at the end of the study (Mean ± SD) [1]: 20.11 ± 1.05 g
- Mean + SD Log10PFU/ml Plasma ([2]; Day 2): 3.34 ± 0.29 Log10PFU/ml
- Mean + SD Log10PFU/ml Plasma ([2]; Day 5): 3.50 ± 0.13 Log10PFU/ml

SMILES: CCCCCCCCCCCCCCCC(=O)N[C@@H](CCCCN)CN1CCC[C@H]1C(=O)N[C@@H](C)C(=O)N[C@H](CCc1ccccc1)C(N)=O [compound 118]
- inhibition at 50 µM [3]: ≥ 25%
- inhibition at 50 µM [4]: ≥ 25%
- IC50 [5]: ≤ 25 µM
- inhibition at 1 µM ([5]; at 1 μM, read-out: inhibition of ZIKV): ≥ 10%
- inhibition at 50 µM ([5]; read-out: inhibition of ZIKV): ≥ 65%
- inhibition at 5 µM [6]: < 5%
- inhibition at 5 µM [7]: < 10%
- inhibition at 25 µM [7]: < 20%
- EC50 [8]: ≤ 25 µM
- EC50 [9]: ≤ 10 µM
- IC50 [10]: ≤ 40 µM

SMILES: CCCCCCCCCCCCCCCC(=O)N[C@@H](CCCCC(=N)N)C(=O)N[C@@H](Cc1c[nH]cn1)C(N)=O [compound 170]
- inhibition at 50 µM [3]: ≥ 25%
- inhibition at 50 µM [4]: ≥ 25%
- IC50 [5]: ≤ 25 µM
- inhibition at 50 µM ([5]; read-out: inhibition of ZIKV): ≥ 65%
- inhibition at 5 µM [6]: < 5%
- inhibition at 5 µM [7]: < 10%
- inhibition at 25 µM [7]: < 20%
- EC50 [8]: ≤ 25 µM
- EC50 [9]: ≤ 10 µM
- IC50 [10]: ≤ 40 µM

SMILES: CCCCCCCCCCCCCCCC(=O)N[C@H](CCCCN)C(=O)N1CCC[C@H]1C(=O)N[C@@H](C)C(=O)N[C@@H](Cc1c[nH]c2ccccc12)C(N)=O [compound 196] (Palmitoyl-[dK]PAW-NH2)
- inhibition at 50 µM [3]: ≥ 25%
- inhibition at 50 µM [4]: ≥ 25%
- IC50 [5]: ≤ 25 µM
- inhibition at 50 µM ([5]; read-out: inhibition of ZIKV): ≥ 65%
- inhibition at 5 µM [6]: < 5%
- inhibition at 5 µM [7]: < 10%
- inhibition at 25 µM [7]: < 20%
- EC50 [8]: ≤ 25 µM
- EC50 [9]: ≤ 10 µM
- IC50 [10]: ≤ 40 µM
